Measurements as given in the supplement of paper PMC10307832.

Assays:
Assay in all cases: relative viability (nuclei count vs DMSO), 5 days (fraction); higher = more cells survive
[1] = compound: CC1=CC(=NN1)NC2=CC(=NC(=N2)/C=C/C3=CC=CC=C3)N4CCN(CC4)C + O=C(CCCCCCC(=O)Nc1ccccc1)NO [Vorinostat] (partner 1 µM)
Method in brief: (§1)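 A single step with final 0.05% Triton X-100, 1% formaldehyde and 1 ug/ml Hoechst fixed the cells and stained nuclei 5 days after treatment. Lung cancer cell lines in 1536-well plates had been treated by pin tool the day after seeding with one drug alone or a fixed anchor-drug dose plus five library-drug doses (not always all listed) in √10 steps, and nuclei were counted on 4× images. Relative viability is the ratio of nuclei in treated wells to nuclei in vehicle wells, taken as the median of duplicate plates.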

Obatoclax + Trametinib = compound: COC1=CC(c2cc3ccccc3[nH]2)=N/C1=C\c1[nH]c(C)cc1C [Obatoclax] + CC(=O)Nc1cccc(-n2c(=O)n(C3CC3)c(=O)c3c(Nc4ccc(I)cc4F)n(C)c(=O)c(C)c32)c1 [Trametinib] (partner 0.02 µM)
Method in brief: as §1

Obatoclax + Dasatinib = compound: COC1=CC(c2cc3ccccc3[nH]2)=N/C1=C\c1[nH]c(C)cc1C [Obatoclax] + Cc1nc(Nc2ncc(C(=O)Nc3c(C)cccc3Cl)s2)cc(N2CCN(CCO)CC2)n1 [Dasatinib] (partner 0.075 µM)
Method in brief: as §1

Obatoclax + Olaparib = compound: COC1=CC(c2cc3ccccc3[nH]2)=N/C1=C\c1[nH]c(C)cc1C [Obatoclax] + O=C(c1cc(Cc2n[nH]c(=O)c3ccccc23)ccc1F)N1CCN(C(=O)C2CC2)CC1 [Olaparib] (partner 8 µM)
Method in brief: as §1

Cell Line | relative viability ([1]; first compound 0.08 µM) | relative viability ([1]; first compound 0.253 µM) | relative viability ([1]; first compound 0.8 µM) | relative viability ([1]; first compound 2.53 µM) | relative viability ([1]; first compound 8 µM) | relative viability (Obatoclax + Trametinib; first compound 0.01 µM) | relative viability (Obatoclax + Trametinib; first compound 0.03162 µM) | relative viability (Obatoclax + Trametinib; first compound 0.1 µM) | relative viability (Obatoclax + Trametinib; first compound 0.3162 µM) | relative viability (Obatoclax + Trametinib; first compound 1 µM) | relative viability (Obatoclax + Dasatinib; first compound 0.01 µM) | relative viability (Obatoclax + Dasatinib; first compound 0.03162 µM) | relative viability (Obatoclax + Dasatinib; first compound 0.1 µM) | relative viability (Obatoclax + Dasatinib; first compound 0.3162 µM) | relative viability (Obatoclax + Dasatinib; first compound 1 µM) | relative viability (Obatoclax + Olaparib; first compound 0.01 µM) | relative viability (Obatoclax + Olaparib; first compound 0.03162 µM) | relative viability (Obatoclax + Olaparib; first compound 0.1 µM) | relative viability (Obatoclax + Olaparib; first compound 0.3162 µM) | relative viability (Obatoclax + Olaparib; first compound 1 µM)
NCI-H1666 | 1.05 | 0.992 | 0.926 | 1.12 | 0.802 | 0.753 | 0.849 | 0.949 | 0.805 | 0.637 | 0.819 | 0.809 | 0.727 | 0.496 | 0.418 | 0.769 | 0.726 | 0.766 | 0.691 | 0.585
NCI-H1437 | 0.631 | 0.904 | 0.819 | 0.394 | 0.201 | 0.512 | 0.471 | 0.642 | 0.498 | 0.359 | 0.559 | 0.295 | 0.384 | 0.355 | 0.445 | 0.634 | 0.623 | 0.626 | 0.623 | 0.533
NCI-H1944 | 0.581 | 0.565 | 0.394 | 0.286 | 0.16 | 0.407 | 0.391 | 0.428 | 0.392 | 0.398 | 0.206 | 0.198 | 0.198 | 0.242 | 0.223 | 0.412 | 0.427 | 0.443 | 0.418 | 0.392
SK-MES-1 | 1.09 | 1.25 | 0.985 | 0.191 | 0.165 | 0.635 | 0.572 | 0.713 | 0.554 | 0.319 | 0.356 | 0.48 | 0.394 | 0.362 | 0.267 | 0.641 | 0.655 | 0.495 | 0.172 | 0.17
NCI-H1355 | 0.639 | 0.599 | 0.622 | 0.273 | 0.104 | 0.403 | 0.462 | 0.439 | 0.35 | 0.454 | 0.836 | 0.675 | 0.538 | 0.68 | 0.535 | 0.76 | 0.767 | 0.781 | 0.667 | 0.717
SK-LU-1 | 0.721 | 0.805 | 0.672 | 0.323 | 0.107 | 0.454 | 0.568 | 0.447 | 0.414 | 0.311 | 0.184 | 0.19 | 0.141 | 0.157 | 0.141 | 0.448 | 0.468 | 0.372 | 0.447 | 0.347
NCI-H2228 | 0.778 | 0.647 | 0.328 | 0.0662 | 0.0606 | 0.573 | 0.454 | 0.576 | 0.473 | 0.474 | 0.499 | 0.595 | 0.571 | 0.351 | 0.148 | 0.583 | 0.521 | 0.62 | 0.489 | 0.405
NCI-H2342 | 0.685 | 0.765 | 0.698 | 0.722 | 0.312 | 0.859 | 0.849 | 0.907 | 0.788 | 0.861 | 0.365 | 0.303 | 0.347 | 0.285 | 0.302 | 0.419 | 0.409 | 0.448 | 0.515 | 0.473
NCI-H1793 | 0.544 | 0.77 | 0.78 | 0.124 | 0.0909 | 0.341 | 0.458 | 0.445 | 0.447 | 0.42 | 0.404 | 0.405 | 0.321 | 0.395 | 0.418 | 0.869 | 0.833 | 0.939 | 0.784 | 0.783
NCI-H2347 | 0.593 | 0.686 | 0.583 | 0.44 | 0.262 | 0.312 | 0.305 | 0.27 | 0.237 | 0.277 | 0.305 | 0.281 |  | 0.308 | 0.324 | 0.56 | 0.572 | 0.528 | 0.524 | 0.476
A-427 | 0.943 | 0.904 | 0.822 | 0.334 | 0.212 | 0.785 | 0.689 | 0.849 | 0.729 | 0.621 | 0.719 | 0.687 | 0.462 | 0.6 | 0.271 | 0.82 | 0.706 | 0.559 | 0.775 | 0.416
HCC-366 | 0.38 | 0.505 | 0.136 | 0.0276 | 0.0214 | 0.348 | 0.323 | 0.321 | 0.245 | 0.228 | 0.667 | 0.574 | 0.39 | 0.574 | 0.533 | 0.322 | 0.366 | 0.316 | 0.334 | 0.272
HCC-78 | 0.465 | 0.518 | 0.461 | 0.372 | 0.246 | 0.774 | 0.717 | 1.03 | 0.547 | 0.898 | 0.48 | 0.406 | 0.419 | 0.324 | 0.418 | 0.836 | 0.952 | 1.26 | 0.668 | 0.855
